Source: patent US7247617B2, “Sixteen-member macrolide antiinfective agents” (Kosan Biosciences Incorporated, priority 2004, dated 2007)

Key:
[1] = test system: S. pneumoniae; test: Biological activity against bacterial strains: S. pneumoniae; assay type: cell-based, Streptococcus pneumoniae; parameters: Biological Activity, S. pneumoniae ATCC6301 / Biological Activity, S. pneumoniae ATCC700671 / Biological Activity, S. pneumoniae ATCC700676* / Biological Activity, S. pneumoniae ATCC700677* / Biological Activity, S. pneumoniae ATCC700905* / Biological Activity, S. pneumoniae ATCC700906* / Biological Activity, S. pneumoniae ATCC49619: unit not given here; settings: for Biological Activity, S. pneumoniae ATCC6301: strain ATCC6301; for Biological Activity, S. pneumoniae ATCC49619: strain ATCC49619; for Biological Activity, S. pneumoniae ATCC700671: strain ATCC700671; for Biological Activity, S. pneumoniae ATCC700676*: strain ATCC700676, macrolide resistant strain; for Biological Activity, S. pneumoniae ATCC700677*: strain ATCC700677, macrolide resistant strain; for Biological Activity, S. pneumoniae ATCC700905*: strain ATCC700905, macrolide resistant strain; for Biological Activity, S. pneumoniae ATCC700906*: strain ATCC700906, macrolide resistant strain
[2] = test system: S. aureus; test: Biological activity against bacterial strains: S. aureus; assay type: cell-based, Staphylococcus aureus; parameters: unit not given here; settings: for Biological Activity, S. aureus ATCC6538p: strain ATCC6538p; for Biological Activity, S. aureus ATCC14154*: strain ATCC14154, macrolide resistant strain; for Biological Activity, S. aureus ATCC29213: strain ATCC29213; for Biological Activity, S. aureus ATCC33591*: strain ATCC33591, macrolide resistant strain; for Biological Activity, S. aureus ATCCBAA-39*: strain ATCCBAA-39, macrolide resistant strain; for Biological Activity, S. aureus ATCCBAA-44*: strain ATCCBAA-44, macrolide resistant strain
[3] = test system: S. epidermidis; test: Biological activity against bacterial strains: S. epidermidis; assay type: cell-based, Staphylococcus epidermidis; settings: strain ATCC12228
[4] = test system: E. faecalis; test: Biological activity against bacterial strains: E. faecalis; assay type: cell-based, Enterococcus faecalis; settings: strain ATCC51575
[5] = test system: Haemophilus Influenzae; test: H. influenzae Activity; assay type: cell-based

Row | SMILES | Biological Activity, S. pneumoniae ATCC6301 [1] | Biological Activity, S. pneumoniae ATCC49619 [1] | Biological Activity, S. pneumoniae ATCC700671 [1] | Biological Activity, S. pneumoniae ATCC700676* [1] | Biological Activity, S. pneumoniae ATCC700677* [1] | Biological Activity, S. pneumoniae ATCC700905* [1] | Biological Activity, S. pneumoniae ATCC700906* [1] | Biological Activity, S. aureus ATCC6538p [2] | Biological Activity, S. aureus ATCC14154* [2] | Biological Activity, S. aureus ATCC29213 [2] | Biological Activity, S. aureus ATCC33591* [2] | Biological Activity, S. aureus ATCCBAA-39* [2] | Biological Activity, S. aureus ATCCBAA-44* [2] | Biological Activity, S. epidermidis ATCC12228 [3] | Biological Activity, E. faecalis ATCC51575 [4] | H. influenzae Activity, strain ATCC9006 [5] | H. influenzae Activity, strain ATCC49766 [5] | decrease in activity compared to OMT ([5]; strains ATCC9006 and ATCC49766) [fold]
1 | CCC1OC(=O)CC(O)C(C)C(OC2OC(C)C(O)C(N(C)C)C2O)C(CC=O)CC(C)C(=NOCCCOc2ccc3ncccc3c2)C=CC(C)=CC1CO (centres unmarked) [Compound A] | 0.025 | 0.01 | 0.025 | 0.025 | 0.20 | 0.025 | >12.5 | 0.025 | 0.20 | 0.098 | >12.5 | >12.5 | >12.5 | 0.098 | >12.5 | 6.25 | 6.25 | ~4
2 | CCC1OC(=O)CC(O)C(C)C(OC2OC(C)C(O)C(N(C)C)C2O)C(CC=O)CC(C)C(=NOCCCOc2ccc3ncccc3c2)C=CC(C)=CC1COC(=O)NCc1ccccc1 (centres unmarked) [Compound DD] | 0.049 | 0.049 | 0.049 | 0.049 | 0.2 | >12.5 | 0.049 | 0.78 | 1.56 | 0.78 | 12.5 | >12.5 | >12.5 | 0.78 | >12.5 | 12.5 | 12.5 | 
3 | CCC1OC(=O)CC(O)C(C)C(OC2OC(C)C(O)C(N(C)C)C2O)C(CCN2CC(C)CC(C)C2)CC(C)C(=NOCCCOc2ccc3ncccc3c2)C=CC(C)=CC1CO (centres unmarked) [Compound S] | 6.25 | 6.25 | 6.25 | 12.5 | >12.5 | 12.5 | >12.5 | >12.5 | >12.5 | >12.5 | >12.5 | >12.5 | >12.5 | >12.5 | >12.5 |  |  | 
4 | CCC1OC(=O)CC(O)C(C)C(OC2OC(C)C(O)C(N(C)C)C2O)C(CCN2CC(C)CC(C)C2)CC(C)C(=NOCCOc2ccccc2)C=CC(C)=CC1CO (centres unmarked) [Compound V] | 0.20 | 0.39 | 0.39 | 0.78 | >12.5 | 0.39 | >12.5 | 0.78 | 6.25 | 6.25 | >12.5 | >12.5 | >12.5 | 6.25 | >12.5 |  |  | 
5 | CCC1OC(=O)CC(O)C(C)C(OC2OC(C)C(O)C(N(C)C)C2O)C(CCN2CC(C)CC(C)C2)CC(C)C(=NOCc2ccc(F)cc2)C=CC(C)=CC1CO (centres unmarked) [Compound W] | 0.39 | 0.39 | 0.39 | 0.39 | >12.5 | 0.39 | >12.5 | 0.78 | 3.12 | 3.12 | >12.5 | >12.5 | >12.5 | 3.12 | >12.5 |  |  | 
6 | CCC1OC(=O)CC(O)C(C)C(OC2OC(C)C(O)C(N(C)C)C2O)C(CCN2CC(C)CC(C)C2)CC(C)C(=NOCC(=O)N2CCN(c3ccccc3)CC2)C=CC(C)=CC1CO (centres unmarked) [Compound X] | 0.049 | 0.049 | 0.098 | 1.56 | >12.5 | 0.78 | >12.5 | 0.39 | 3.12 | 1.56 | >12.5 | >12.5 | >12.5 | 0.78 | >12.5 |  |  | 
7 | CC[C@H]1OC(=O)C[C@@H](O)[C@H](C)[C@@H](O[C@@H]2O[C@H](C)[C@@H](O)[C@H](N(C)C)[C@H]2O)[C@@H](CCN2C[C@H](C)C[C@H](C)C2)C[C@@H](C)C(=O)/C=C/C(C)=C/[C@@H]1CO[C@@H]1O[C@H](C)[C@@H](O)[C@@H](OC)[C@H]1OC [Tilm, tilmicosin, reference compound] | 0.39 | 1.56 | 0.78 | 0.78 | 6.25 | 1.56 | >12.5 | 0.098 | 0.39 | 0.20 | >12.5 | >12.5 | >12.5 | 0.098 | >12.5 |  |  | 
8 | CC[C@H]1OC(=O)C[C@@H](O)[C@H](C)[C@@H](O[C@@H]2O[C@H](C)[C@@H](O[C@H]3C[C@@](C)(O)[C@@H](O)[C@H](C)O3)[C@H](N(C)C)[C@H]2O)[C@@H](CC=O)C[C@@H](C)C(=O)/C=C/C(C)=C/[C@@H]1CO[C@@H]1O[C@H](C)[C@@H](O)[C@@H](OC)[C@H]1OC [Tyl, tylosin, reference compound] | 0.098 | 0.098 | 0.20 | 0.20 | >12.5 | 0.20 | >12.5 | 0.20 | 1.56 | 1.56 | >12.5 | >12.5 | >12.5 | 0.39 | >12.5 |  |  | 
